Molecules are shown by their SMILES. Records with an inconclusive call do not appear. Active and inactive are the calls of the source.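 Rule for the calls: active = fitted curve rises past 40% HDL binding increase at a concentration no higher than twice the top valid tested dose; inconclusive = no clear call, values can overlap the other calls; inactive = effects opposite to the expected rise, plus the rest.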

The record followed here is PubChem BioAssay AID624024 (Broad Institute, 2012).

The target in one test is Scavenger receptor class B member 1 (Mus musculus) (UniProt Q61009). Kind of test: modulators of Alexa488-HDL binding to SR-BI, dose response, orthogonal assay for SR-BI HDL uptake inhibitor project, cell-based, ldlA[mSR-BI] CHO, Alexa 488-HDL, powder samples, set 3 (AID 624024). As to conditions: ldlA[mSR-BI] CHO cells, Alexa488-HDL binding fluorescence, 3 h.
Chain of Scavenger receptor class B member 1 (Mus musculus) (Q61009 whole entry, looked up): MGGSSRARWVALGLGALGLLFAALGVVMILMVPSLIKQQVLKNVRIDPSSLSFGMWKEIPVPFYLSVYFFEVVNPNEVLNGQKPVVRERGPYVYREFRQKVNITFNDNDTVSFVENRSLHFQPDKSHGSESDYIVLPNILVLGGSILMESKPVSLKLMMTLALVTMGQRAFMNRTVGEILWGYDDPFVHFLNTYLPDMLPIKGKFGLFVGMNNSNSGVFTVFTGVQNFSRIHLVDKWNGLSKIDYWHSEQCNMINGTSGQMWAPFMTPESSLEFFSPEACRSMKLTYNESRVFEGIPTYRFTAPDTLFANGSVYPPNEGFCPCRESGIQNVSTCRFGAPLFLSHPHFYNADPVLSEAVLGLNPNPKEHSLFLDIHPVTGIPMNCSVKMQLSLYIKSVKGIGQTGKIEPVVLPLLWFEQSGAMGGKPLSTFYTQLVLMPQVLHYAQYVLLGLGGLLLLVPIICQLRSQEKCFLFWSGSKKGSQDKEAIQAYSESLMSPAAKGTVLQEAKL
As for `CC(C)NC(=O)Nc1ccc2c(c1)C(=O)N([C@@H](C)CO)C[C@H](C)[C@@H](CN(C)S(=O)(=O)c1ccc(Cl)cc1)O2`, the AC40 was 671 nM.
Same read-out and setting: in the case of `COc1c(NC(=O)C(=O)c2ccc(OCCN3CCOCC3)c3ccccc23)cc(C(C)(C)C)cc1NS(C)(=O)=O` it was 218 nM; in that of `C[C@H](C(=O)NC1CCCC1)N(C(=O)Cn1nnc(-c2ccc3c(c2)OCO3)n1)C1CCCCC1`, 16.7 nM; in that of `CC(=O)Nc1ccc(Cl)c(C(=O)Nc2ccc(N3CCN(C(=O)OC(C)(C)C)CC3)cc2)c1`, 16.6 nM.
The same measure, in the same setting: in the case of `CCOc1cc2c3c(c1)C1(C(=O)N3C(C)(C)CC2C)C(C#N)=C(N)N2C(=C1C#N)Nc1ccccc12` (configuration not stated) it was 3670 nM.
The same measure, in the same setting: in the case of `CC(C)(C)OC(=O)N1CCN(c2ccc(NC(=O)c3cc([N+](=O)[O-])ccc3Cl)cc2)CC1` it was 155 nM.
Take `C[C@@H]1CN([C@H](C)CO)C(=O)c2cc(NC(=O)C3CCCCC3)ccc2O[C@H]1CN(C)S(=O)(=O)c1ccc(Cl)cc1`: the AC40 is 33.2 nM.
Still for that read-out and setting: with `C[C@@H]1CN([C@H](C)CO)C(=O)c2cc(NC(=O)C3CCCCC3)ccc2O[C@H]1CN(C)C(=O)c1ccc(Cl)cc1` the figure was 17500 nM; with `CNC[C@@H]1Oc2ccc(NC(=O)NC(C)C)cc2C(=O)N([C@H](C)CO[Si](C)(C)C(C)(C)C)C[C@H]1C`, 3380 nM.
Same read-out and setting: in the case of `CC(C)NC(=O)Nc1ccc2c(c1)C(=O)N([C@@H](C)CO)C[C@@H](C)[C@H](CN(C)S(=O)(=O)c1ccc(Cl)cc1)O2` it was 20.3 nM.
On the same count and under the same terms, in the case of `C[C@@H]1CN([C@H](C)CO)C(=O)c2cc(NC(=O)Cc3cn(C)c4ccccc34)ccc2O[C@H]1CN(C)S(=O)(=O)c1ccc(Cl)cc1` it was 4.61 nM; in that of `C[C@@H]1CN([C@H](C)CO[Si](C)(C)C(C)(C)C)C(=O)c2cc(NC(=O)C3CCCCC3)ccc2O[C@H]1CN(C)C(=O)c1ccc(Cl)cc1`, 6330 nM.
As to `C[C@@H]1CN([C@H](C)CO)C(=O)c2cc(NC(=O)Nc3ccc(F)cc3)ccc2O[C@H]1CN(C)S(=O)(=O)c1ccc(Cl)cc1`, the AC40 is 33.2 nM.
The same measure, in the same setting: with `C=CCOC(=O)N(C)C[C@@H]1Oc2ccc(N)cc2C(=O)N([C@H](C)CO[Si](C)(C)C(C)(C)C)C[C@H]1C` the figure was 3760 nM; with `CC(C)CN(C(=O)COC(=O)C12CC3CC(CC(O)(C3)C1)C2)C1CCS(=O)(=O)C1` (configuration not stated), 772 nM.
On the same count and under the same terms, in the case of `CC(C)NC(=O)Nc1ccc2c(c1)C(=O)N([C@@H](C)CO)C[C@H](C)[C@H](CN(C)S(=O)(=O)c1ccc(Cl)cc1)O2` it was 12.1 nM; in that of `CC(C)NC(=O)Nc1ccc2c(c1)C(=O)N([C@H](C)CO)C[C@@H](C)[C@@H](CN(C)S(=O)(=O)c1ccc(Cl)cc1)O2`, 3690 nM; in that of `C[C@@H]1CN([C@H](C)CO)C(=O)c2cc(NC(=O)C3CCCCC3)ccc2O[C@H]1CN(C)S(=O)(=O)c1ccccc1Cl`, 222 nM.
The same measure, in the same setting: in the case of `C[C@@H]1CN([C@H](C)CO)C(=O)c2cc(NC(=O)Cc3cn(C)c4ccccc34)ccc2O[C@H]1CN(C)S(=O)(=O)c1ccc(F)cc1` it was 1.76 nM; in that of `C[C@@H]1CN([C@H](C)CO)C(=O)c2cc(NC(=O)C3CCOCC3)ccc2O[C@H]1CN(C)S(=O)(=O)c1ccc(Cl)cc1`, 1970 nM; in that of `CCCCCCC1CCC/C1=N\NC(N)=S` (configuration not stated), 2.72 nM.
`COCC(=O)N1CCc2cc(-c3csc(NC(=O)c4cc(OC)cc(OC)c4)n3)ccc21`: the AC40 is 19.9 nM.
In the case of `CC(C)NC(=O)Nc1ccc2c(c1)C(=O)N([C@@H](C)CO)C[C@@H](C)[C@@H](CN(C)S(=O)(=O)c1ccc(Cl)cc1)O2`, the AC40 was 57.6 nM.
For `C=CCOC(=O)N(C)C[C@@H]1Oc2ccc(NC(=O)OCC3c4ccccc4-c4ccccc43)cc2C(=O)N([C@H](C)CO)C[C@H]1C`, the AC40 was 1870 nM.
Still for that read-out and setting: in the case of `C[C@@H]1CN([C@H](C)CO)C(=O)c2cc(NC(=O)C3CCCCC3)ccc2O[C@H]1CN(C)S(=O)(=O)c1cccc(Cl)c1` it was 3040 nM.
The same measure, in the same setting: with `CC(C)NC(=O)Nc1cccc2c1O[C@@H](CN(C)S(=O)(=O)c1ccc(Cl)cc1)[C@H](C)CN([C@H](C)CO)C2=O` the figure was 544 nM; with `Cc1noc(C)c1S(=O)(=O)Nc1ccc2c(c1)C(=O)N([C@H](C)CO)C[C@@H](C)[C@H](CN(C)S(=O)(=O)c1ccc(Cl)cc1)O2`, 138 nM.

The same test, now with this note: ldlA[mSR-BI] CHO cells, Alexa488-HDL binding fluorescence, 3 h; at 35 µM (top of the series).
Turning to `O=C1C2C3C=CC(C3)C2C(=O)N1c1cccc(N2C(=O)C3C4C=CC(C4)C3C2=O)n1` (configuration not stated), the HDL binding change, positive = increase was 4.51% (inactive).
With `COc1ccc2c(c1)CC(C1(O)C(=O)N(C)c3ccccc31)C2=O` (configuration not stated), the HDL binding change, positive = increase is 37.2% (inactive).
Still for that read-out and setting: in the case of `Cc1ccc(OCc2cc(C(=O)N3CCCC(O)C3)no2)cn1` (configuration not stated) it was 36% (inactive); in that of `C=CCOC(=O)N(C)C[C@@H]1Oc2ccc(NC(=O)NC(C)C)cc2C(=O)N([C@H](C)CO[Si](C)(C)C(C)(C)C)C[C@H]1C`, 90.1% (inactive).
Still for that read-out and setting: with `O=C(O)CC(C(=O)Nc1cccc(C(F)(F)F)c1)C1CCCO1` (configuration not stated) the figure was 64.3% (inactive).
